This passage reports IC50 results from patent US10442803B2, “Tricyclic heterocycles as bet protein inhibitors” (Incyte Corporation, priority 2013, dated 2019).

Where a name gives a salt, the structure may show the parent alone. Where only a bound is given, the exact number is not on record here.

For this assay, the system named is KMS.12.BM cells. Description: KMS.12.BM cell viability assay. The note with it: 72 h; KMS.12.BM human myeloma cells, 3 days, Cell Titer-GLO ATP quantitation; read-out: KMS cellular IC50. The format is cell-based. Put shortly: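 IC50 derived from luminescent ATP quantitation (Cell Titer-GLO) of viable cells after 3-day compound treatment. KMS.12.BM human myeloma line seeded at 5000 cells/well in RPMI with 10% FBS.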
A general note: ATP-based viability assays read luminescence as a measure of living cells.
A word on the IC50: it is the midpoint of a concentration-inhibition curve. Regarding `Cc1nnc2ccc3c(cc(C(=O)NCC(C)C)n3Cc3ccccc3)n12` [Example 125, 6-Benzyl-N-isobutyl-1-methyl-6H-pyrrolo[2,3-e][1,2,4]triazolo[4,3-a]pyridine-7-carboxamide trifluoroacetate], the IC50 was no more than 1000 nM.
`Cc1nnc2ccc3c(cc(C(=O)NCc4ccncc4)n3Cc3ccccc3)n12` [Example 126, 6-Benzyl-1-methyl-N-(pyridin-4-ylmethyl)-6H-pyrrolo[2,3-e][1,2,4]triazolo[4,3-a]pyridine-7-carboxamide bis(trifluoroacetate) salt]: the IC50 is no more than 1000 nM.
As for `Cc1nnc2ccc3c(cc(C(=O)NCCCO)n3Cc3cccc(Cl)c3)n12` [Example 127, 6-(3-Chlorobenzyl)-N-(3-hydroxypropyl)-1-methyl-6H-pyrrolo[2,3-e][1,2,4]triazolo[4,3-a]pyridine-7-carboxamide trifluoroacetate salt], the IC50 is no more than 1000 nM.
The value for `Cc1nnc2ccc3c(cc(C(=O)NCC(C)C)n3Cc3cccc(Cl)c3)n12` [Example 129, 6-(3-Chlorobenzyl)-N-isobutyl-1-methyl-6H-pyrrolo[2,3-e][1,2,4]triazolo[4,3-a]pyridine-7-carboxamide trifluoroacetate salt] was no more than 1000 nM; that for `Cc1nnc2ccc3c(cc(C(=O)NCc4ccncc4)n3Cc3cccc(Cl)c3)n12` [Example 130, 6-(3-Chlorobenzyl)-1-methyl-N-(pyridin-4-ylmethyl)-6H-pyrrolo[2,3-e][1,2,4]triazolo[4,3-a]pyridine-7-carboxamide bis(trifluoroacetate) salt] was no more than 1000 nM.
Regarding `CNC(=O)c1cc2c(ccc3nnc(C)n32)n1Cc1cc(Cl)cc(CN2CCC2)c1` [Example 131, 6-[3-(Azetidin-1-ylmethyl)-5-chlorobenzyl]-N,1-dimethyl-6H-pyrrolo[2,3-e][1,2,4]triazolo[4,3-a]pyridine-7-carboxamide bis(trifluoroacetate) salt], the IC50 is no more than 1000 nM.
For the compound `CNC(=O)c1cc2c(ccc3nnc(C)n32)n1Cc1cc(Cl)cc(CN2CCCC2)c1` [Example 132, 6-[3-Chloro-5-(pyrrolidin-1-ylmethyl)benzyl]-N,1-dimethyl-6H-pyrrolo[2,3-e][1,2,4]triazolo[4,3-a]pyridine-7-carboxamide 2.5×(trifluoroacetate) salt], the IC50 was no more than 1000 nM.
Turning to `CCNC(=O)c1cc2c(ccc3nnc(C)n32)n1Cc1cc(Cl)cc(CN2CCCC2)c1` [Example 133, 6-[3-Chloro-5-(pyrrolidin-1-ylmethyl)benzyl]-N-ethyl-1-methyl-6H-pyrrolo[2,3-e][1,2,4]triazolo[4,3-a]pyridine-7-carboxamide bis(trifluoroacetate) salt], the IC50 was no more than 1000 nM.
On to `CNC(=O)c1cc2c(ccc3nnc(C)n32)n1Cc1cc(Cl)cc(CN2CCC(F)(F)C2)c1` [Example 134, 6-{3-Chloro-5-[(3,3-difluoropyrrolidin-1-yl)methyl]benzyl}-N,1-dimethyl-6H-pyrrolo[2,3-e][1,2,4]triazolo[4,3-a]pyridine-7-carboxamide 2.4×(trifluoroacetate) salt], for which the IC50 was no more than 1000 nM.
To `CNC(=O)c1cc2c(ccc3nnc(C)n32)n1Cc1cc(Cl)cc(CN2CC(C)(C)C2)c1` [Example 135, 6-{3-Chloro-5-[(3,3-dimethylazetidin-1-yl)methyl]benzyl}-N,1-dimethyl-6H-pyrrolo[2,3-e][1,2,4]triazolo[4,3-a]pyridine-7-carboxamide bis(trifluoroacetate) salt] belongs no more than 1000 nM.
The value for `CNC(=O)c1cc2c(ccc3nnc(C)n32)n1Cc1cccc(C(F)(F)F)c1` [Example 136, N,1-dimethyl-6-[3-(trifluoromethyl)benzyl]-6H-pyrrolo[2,3-e][1,2,4]triazolo[4,3-a]pyridine-7-carboxamide trifluoroacetate salt] was no more than 1000 nM.
Turning to `CCNC(=O)c1cc2c(ccc3nnc(C)n32)n1Cc1cccc(C(F)(F)F)c1` [Example 137, N-Ethyl-1-methyl-6-[3-(trifluoromethyl)benzyl]-6H-pyrrolo[2,3-e][1,2,4]triazolo[4,3-a]pyridine-7-carboxamide trifluoroacetate salt], the IC50 was no more than 1000 nM.
As for `CNC(=O)Nc1cc2c(cc(C)n2Cc2cc(Cl)cc(CN3CCCC3)c2)n2c(C)nnc12` [Example 142, N-{6-[3-Chloro-5-(pyrrolidin-1-ylmethyl)benzyl]-1,7-dimethyl-6H-pyrrolo[2,3-e][1,2,4]triazolo[4,3-a]pyridin-4-yl}-N′-methylurea bis(trifluoroacetate) salt], the IC50 was no more than 1000 nM.
In the case of `Cc1nnc2ccc3c(cc(-c4ncco4)n3Cc3ccccc3)n12` [Example 143, 6-benzyl-1-methyl-7-(1,3-oxazol-2-yl)-6H-pyrrolo[2,3-e][1,2,4]triazolo[4,3-a]pyridine trifluoroacetate salt], the IC50 is no more than 1000 nM.
To `Cc1cc2c(cc(NC3CCOCC3)c3nnc(C)n32)n1Cc1ccccc1` [Example 146, 6-benzyl-1,7-dimethyl-N-(tetrahydro-2H-pyran-4-yl)-6H-pyrrolo[2,3-e][1,2,4]triazolo[4,3-a]pyridin-4-amine] belongs 1000 to 10000 nM.
For the compound `Cc1cc2c(cc(N[C@@H]3CCOC3)c3nnc(C)n32)n1Cc1ccccc1` [Example 147, 6-benzyl-1,7-dimethyl-N-[(3R)-tetrahydrofuran-3-yl]-6H-pyrrolo[2,3-e][1,2,4]triazolo[4,3-a]pyridin-4-amine], the IC50 was in the range of 1000 to 10000 nM.
Consider `Cc1cc2c(cc(N[C@H]3CCOC3)c3nnc(C)n32)n1Cc1ccccc1` [Example 148, 6-benzyl-1,7-dimethyl-N-[(3S)-tetrahydrofuran-3-yl]-6H-pyrrolo[2,3-e][1,2,4]triazolo[4,3-a]pyridin-4-amine], for which the IC50 fell in the range of 1000 to 10000 nM.
To `Cc1cc2c(cc(N[C@@H]3CCN(C(=O)OC(C)(C)C)C3)c3nnc(C)n32)n1Cc1ccccc1` [Example 149, tert-butyl (3R)-3-[(6-benzyl-1,7-dimethyl-6H-pyrrolo[2,3-e][1,2,4]triazolo[4,3-a]pyridin-4-yl)amino]pyrrolidine-1-carboxylate] belongs 1000 to 10000 nM.
Turning to `Cc1cc2c(cc(N[C@H]3CCN(C(=O)OC(C)(C)C)C3)c3nnc(C)n32)n1Cc1ccccc1` [Example 150, tert-butyl (3S)-3-[(6-benzyl-1,7-dimethyl-6H-pyrrolo[2,3-e][1,2,4]triazolo[4,3-a]pyridin-4-yl)amino]pyrrolidine-1-carboxylate], the IC50 lay in the range of 1000 to 10000 nM.
As for `Cc1cc2c(cc(N[C@@H]3CCNC3)c3nnc(C)n32)n1Cc1ccccc1` [Example 151, 6-benzyl-1,7-dimethyl-N-[(3R)-pyrrolidin-3-yl]-6H-pyrrolo[2,3-e][1,2,4]triazolo[4,3-a]pyridin-4-amine bis(trifluoroacetate) salt], the IC50 is no more than 1000 nM.
Turning to `Cc1cc2c(cc(N[C@H]3CCNC3)c3nnc(C)n32)n1Cc1ccccc1` [Example 152, 6-benzyl-1,7-dimethyl-N-[(3S)-pyrrolidin-3-yl]-6H-pyrrolo[2,3-e][1,2,4]triazolo[4,3-a]pyridin-4-amine bis(trifluoroacetate) salt], the IC50 was no more than 1000 nM.
For the compound `Cc1cc2c(cc(NC3CCN(C)CC3)c3nnc(C)n32)n1Cc1ccccn1` [Example 153, 1,7-dimethyl-N-(1-methylpiperidin-4-yl)-6-(pyridin-2-ylmethyl)-6H-pyrrolo[2,3-e][1,2,4]triazolo[4,3-a]pyridin-4-amine], the IC50 is no more than 1000 nM.
To `Cc1cc2c(cc(NC3CCN(C)CC3)c3nnc(C)n32)n1Cc1cccnc1` [Example 154, 1,7-dimethyl-N-(1-methylpiperidin-4-yl)-6-(pyridin-3-ylmethyl)-6H-pyrrolo[2,3-e][1,2,4]triazolo[4,3-a]pyridin-4-amine] belongs no more than 1000 nM.
Take `Cc1nnc2ccc3c(cc(-c4ccn[nH]4)n3Cc3cccc(Cl)c3)n12` [Example 155, 6-(3-chlorobenzyl)-1-methyl-7-(1H-pyrazol-5-yl)-6H-pyrrolo[2,3-e][1,2,4]triazolo[4,3-a]pyridine bis(trifluoroacetate) salt]: the IC50 is no more than 1000 nM.
`CCN1CC(CC#N)(n2ccc(-c3cc4c(ccc5nnc(C)n54)n3Cc3cccc(Cl)c3)n2)C1` [Example 158, (3-{3-[6-(3-Chlorobenzyl)-1-methyl-6H-pyrrolo[2,3-e][1,2,4]triazolo[4,3-a]pyridin-7-yl]-1H-pyrazol-1-yl}-1-ethylazetidin-3-yl)acetonitrile bis(trifluoroacetate) salt]: the IC50 is no more than 1000 nM.
The value for `Cc1nnc2ccc3c(cc(-c4ccn(CCC(N)=O)n4)n3Cc3cccc(Cl)c3)n12` [Example 159, 3-{3-[6-(3-Chlorobenzyl)-1-methyl-6H-pyrrolo[2,3-e][1,2,4]triazolo[4,3-a]pyridin-7-yl]-1H-pyrazol-1-yl}propanamide trifluoroacetate salt] was no more than 1000 nM.
Take `CCN1CC(n2ccc(-c3cc4c(ccc5nnc(C)n54)n3Cc3cccc(Cl)c3)n2)C1` [Example 160, 6-(3-Chlorobenzyl)-7-[1-(1-ethylazetidin-3-yl)-1H-pyrazol-3-yl]-1-methyl-6H-pyrrolo[2,3-e][1,2,4]triazolo[4,3-a]pyridine bis(trifluoroacetate) salt]: the IC50 was no more than 1000 nM.
To `Cc1nnc2ccc3c(cc(-c4ccn(C5CN(S(=O)(=O)N(C)C)C5)n4)n3Cc3cccc(Cl)c3)n12` [Example 161, 3-{3-[6-(3-Chlorobenzyl)-1-methyl-6H-pyrrolo[2,3-e][1,2,4]triazolo[4,3-a]pyridin-7-yl]-1H-pyrazol-1-yl}-N,N-dimethylazetidine-1-sulfonamide bis(trifluoroacetate) salt] belongs no more than 1000 nM; to `Cc1nnc2ccc3c(cc(-c4ccn(C5CN(C(=O)CN(C)C)C5)n4)n3Cc3cccc(Cl)c3)n12` [Example 162, 2-(3-{3-[6-(3-Chlorobenzyl)-1-methyl-6H-pyrrolo[2,3-e][1,2,4]triazolo[4,3-a]pyridin-7-yl]-1H-pyrazol-1-yl}azetidin-1-yl)-N,N-dimethyl-2-oxoethanamine bis(trifluoroacetate) salt], no more than 1000 nM.
